Source: the supplement of paper PMC10307832

Tests used:
Experiment in all cases: relative viability (nuclei count vs DMSO), 5 days (fraction); higher = more cells survive
[1] = compound: Cn1nnc2c(C(N)=O)ncn2c1=O [Temozolomide] + Cc1nc(NC(=O)N2CCC[C@H]2C(N)=O)sc1-c1ccnc(C(C)(C)C(F)(F)F)c1 [Alpelisib] (partner 2 µM)
Method in brief: (§1)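 A single step with final 0.05% Triton X-100, 1% formaldehyde and 1 ug/ml Hoechst fixed the cells and stained nuclei 5 days after treatment. Lung cancer cell lines in 1536-well plates had been treated by pin tool the day after seeding with one drug alone or a fixed anchor-drug dose plus five library-drug doses (not always all listed) in √10 steps, and nuclei were counted on 4× images. Relative viability is the ratio of nuclei in treated wells to nuclei in vehicle wells, taken as the median of duplicate plates.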

[2] = compound: C[C@@H](C(=O)N[C@@H](C1CCCCC1)C(=O)N2CCC[C@H]2C(=O)N[C@@H]3[C@@H](CC4=CC=CC=C34)OCC#CC#CCO[C@@H]5CC6=CC=CC=C6[C@@H]5NC(=O)[C@@H]7CCCN7C(=O)[C@H](C8CCCCC8)NC(=O)[C@H](C)NC)NC [AZD5582] + CC1(C)CCC(c2ccc(Cl)cc2)=C(CN2CCN(c3ccc(C(=O)NS(=O)(=O)c4ccc(N[C@H](CCN5CCOCC5)CSc5ccccc5)c(S(=O)(=O)C(F)(F)F)c4)cc3)CC2)C1 [Navitoclax] (partner 0.5 µM)
Method in brief: as §1

[3] = compound: C[C@@H](C(=O)N[C@@H](C1CCCCC1)C(=O)N2CCC[C@H]2C(=O)N[C@@H]3[C@@H](CC4=CC=CC=C34)OCC#CC#CCO[C@@H]5CC6=CC=CC=C6[C@@H]5NC(=O)[C@@H]7CCCN7C(=O)[C@H](C8CCCCC8)NC(=O)[C@H](C)NC)NC [AZD5582] + N=C(N)NC(=N)NCCc1ccccc1 [Phenformin] (partner 250 µM)
Method in brief: as §1

[4] = compound: Cn1nnc2c(C(N)=O)ncn2c1=O [Temozolomide] + CCNC(=O)c1noc(-c2cc(C(C)C)c(O)cc2O)c1-c1ccc(CN2CCOCC2)cc1 [Luminespib] (partner 0.01 µM)
Method in brief: as §1

Question: What does the source list for HCC-366?
Answer: relative viability ([1]; first compound 0.2 µM): 0.337; relative viability ([1]; first compound 0.6325 µM): 0.391; relative viability ([1]; first compound 2 µM): 0.456; relative viability ([1]; first compound 6.325 µM): 0.462; relative viability ([1]; first compound 20 µM): 0.358; relative viability ([2]; first compound 0.001581 µM): 1.05; relative viability ([2]; first compound 0.005 µM): 0.925; relative viability ([2]; first compound 0.01581 µM): 0.998; relative viability ([2]; first compound 0.05 µM): 1.07; relative viability ([3]; first compound 0.001581 µM): 0.575; relative viability ([3]; first compound 0.005 µM): 0.564; relative viability ([3]; first compound 0.05 µM): 0.708

Question: Which relative viability ([4]; first compound 0.2 µM) does the source give for HCC-827 here?
Answer: 0.52

Question: And the relative viability ([4]; first compound 0.6325 µM)?
Answer: 0.67

Question: What about the relative viability ([4]; first compound 2 µM) of the same cell line?
Answer: 0.638

Question: And the relative viability ([4]; first compound 6.325 µM)?
Answer: 0.382

Question: What about the relative viability ([4]; first compound 20 µM) of the same cell line?
Answer: 0.191

Question: And the relative viability ([1]; first compound 0.2 µM)?
Answer: 0.995

Question: What about the relative viability ([1]; first compound 0.6325 µM) of the same cell line?
Answer: 0.978

Question: And the relative viability ([1]; first compound 2 µM)?
Answer: 1.02

Question: And the relative viability ([1]; first compound 6.325 µM)?
Answer: 0.995

Question: What about the relative viability ([1]; first compound 20 µM) of the same cell line?
Answer: 0.136

Question: And the relative viability ([2]; first compound 0.001581 µM)?
Answer: 1.09

Question: And the relative viability ([2]; first compound 0.005 µM)?
Answer: 1.01

Question: And the relative viability ([2]; first compound 0.01581 µM)?
Answer: 0.972

Question: And the relative viability ([2]; first compound 0.05 µM)?
Answer: 1.04

Question: And the relative viability ([3]; first compound 0.001581 µM)?
Answer: 0.391

Question: And the relative viability ([3]; first compound 0.005 µM)?
Answer: 0.383

Question: And the relative viability ([3]; first compound 0.01581 µM)?
Answer: 0.368

Question: What about the relative viability ([3]; first compound 0.05 µM) of the same cell line?
Answer: 0.387

Question: Which results are given for HOP-62?
Answer: relative viability ([4]; first compound 0.2 µM): 0.839; relative viability ([4]; first compound 0.6325 µM): 0.88; relative viability ([4]; first compound 2 µM): 0.988; relative viability ([4]; first compound 6.325 µM): 0.93; relative viability ([4]; first compound 20 µM): 0.968; relative viability ([1]; first compound 0.2 µM): 1.18; relative viability ([1]; first compound 0.6325 µM): 1; relative viability ([1]; first compound 2 µM): 0.896; relative viability ([1]; first compound 6.325 µM): 0.847; relative viability ([1]; first compound 20 µM): 0.814; relative viability ([2]; first compound 0.001581 µM): 0.945; relative viability ([2]; first compound 0.005 µM): 0.917; relative viability ([2]; first compound 0.01581 µM): 1.08; relative viability ([2]; first compound 0.05 µM): 1.14; relative viability ([3]; first compound 0.001581 µM): 0.515; relative viability ([3]; first compound 0.005 µM): 0.676; relative viability ([3]; first compound 0.01581 µM): 0.666; relative viability ([3]; first compound 0.05 µM): 0.711

Question: IA-LM was tested. Which relative viability ([1]; first compound 0.2 µM) did it give?
Answer: 0.956

Question: And the relative viability ([1]; first compound 0.6325 µM)?
Answer: 0.716

Question: And the relative viability ([1]; first compound 2 µM)?
Answer: 0.811

Question: What about the relative viability ([1]; first compound 6.325 µM) of the same cell line?
Answer: 0.716

Question: And the relative viability ([1]; first compound 20 µM)?
Answer: 0.711

Question: And the relative viability ([2]; first compound 0.001581 µM)?
Answer: 0.499

Question: And the relative viability ([2]; first compound 0.005 µM)?
Answer: 0.538

Question: What about the relative viability ([2]; first compound 0.01581 µM) of the same cell line?
Answer: 0.951

Question: And the relative viability ([2]; first compound 0.05 µM)?
Answer: 0.714

Question: LC-2-ad was tested. Which relative viability ([4]; first compound 0.2 µM) did it give?
Answer: 0.928

Question: And the relative viability ([4]; first compound 0.6325 µM)?
Answer: 1.05

Question: And the relative viability ([4]; first compound 2 µM)?
Answer: 1.09

Question: What about the relative viability ([4]; first compound 6.325 µM) of the same cell line?
Answer: 0.899

Question: What about the relative viability ([4]; first compound 20 µM) of the same cell line?
Answer: 0.988

Question: And the relative viability ([1]; first compound 0.2 µM)?
Answer: 0.896

Question: And the relative viability ([1]; first compound 0.6325 µM)?
Answer: 0.842

Question: And the relative viability ([1]; first compound 2 µM)?
Answer: 0.942

Question: And the relative viability ([1]; first compound 6.325 µM)?
Answer: 0.818

Question: And the relative viability ([1]; first compound 20 µM)?
Answer: 0.642

Question: What about the relative viability ([2]; first compound 0.001581 µM) of the same cell line?
Answer: 0.331

Question: What about the relative viability ([2]; first compound 0.005 µM) of the same cell line?
Answer: 0.454

Question: What about the relative viability ([2]; first compound 0.01581 µM) of the same cell line?
Answer: 0.468

Question: What about the relative viability ([2]; first compound 0.05 µM) of the same cell line?
Answer: 0.384

Question: What about the relative viability ([3]; first compound 0.001581 µM) of the same cell line?
Answer: 0.607

Question: What about the relative viability ([3]; first compound 0.005 µM) of the same cell line?
Answer: 0.64

Question: And the relative viability ([3]; first compound 0.01581 µM)?
Answer: 0.338

Question: And the relative viability ([3]; first compound 0.05 µM)?
Answer: 0.585
